The values that follow come from article PMC8684776, “Discovery and characterization of potent And‐1 inhibitors for cancer treatment” (Clinical and Translational Medicine, 2021).

Data set [1] has as its target T1, And‐1 (Homo sapiens, UniProt O75717).
T1 construct: expressed in transfected cells
T1 sequence (O75717 1-1129): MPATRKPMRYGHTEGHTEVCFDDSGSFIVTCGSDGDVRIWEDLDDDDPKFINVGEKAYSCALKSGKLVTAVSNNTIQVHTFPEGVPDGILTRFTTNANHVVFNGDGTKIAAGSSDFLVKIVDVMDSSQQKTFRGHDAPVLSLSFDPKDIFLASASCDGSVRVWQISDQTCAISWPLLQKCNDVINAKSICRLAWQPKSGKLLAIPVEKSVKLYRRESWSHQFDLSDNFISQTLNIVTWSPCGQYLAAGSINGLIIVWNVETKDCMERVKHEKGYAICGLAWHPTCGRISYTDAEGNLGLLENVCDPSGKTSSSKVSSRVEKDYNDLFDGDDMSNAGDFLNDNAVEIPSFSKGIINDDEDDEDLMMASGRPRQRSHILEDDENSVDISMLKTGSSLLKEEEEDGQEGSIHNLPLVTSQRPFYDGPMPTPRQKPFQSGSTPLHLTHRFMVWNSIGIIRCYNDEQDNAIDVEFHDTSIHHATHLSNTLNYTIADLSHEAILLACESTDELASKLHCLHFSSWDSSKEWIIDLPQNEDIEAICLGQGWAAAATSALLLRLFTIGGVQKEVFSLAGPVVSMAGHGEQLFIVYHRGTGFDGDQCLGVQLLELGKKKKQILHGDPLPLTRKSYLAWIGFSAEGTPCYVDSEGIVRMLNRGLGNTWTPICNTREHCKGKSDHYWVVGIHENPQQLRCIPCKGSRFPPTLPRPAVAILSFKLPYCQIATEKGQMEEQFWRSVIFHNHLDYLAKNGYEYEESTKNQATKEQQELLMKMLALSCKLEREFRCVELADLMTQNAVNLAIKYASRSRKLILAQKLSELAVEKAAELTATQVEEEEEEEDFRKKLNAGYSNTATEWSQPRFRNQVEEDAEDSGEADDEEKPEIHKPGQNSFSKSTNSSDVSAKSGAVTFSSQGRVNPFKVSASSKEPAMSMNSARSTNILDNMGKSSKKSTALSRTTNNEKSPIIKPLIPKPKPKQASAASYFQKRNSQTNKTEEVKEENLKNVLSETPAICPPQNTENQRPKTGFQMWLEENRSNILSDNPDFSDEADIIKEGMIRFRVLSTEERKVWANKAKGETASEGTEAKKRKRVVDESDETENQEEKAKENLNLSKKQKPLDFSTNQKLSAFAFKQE
The data set can be described thus: And‐1 luciferase reporter assay (qHTS of LOPAC). Type of data set: cell-based. The method, then: And‐1‐Luc reporter HEK293 cells were dispensed at 2000 cells/5 μl/well in tissue culture treated white wall/solid bottom 1536‐well plates (Greiner Bio‐One North America, Monroe, NC, USA) using a Thermo Scientific Multidrop Combi (ThermoFisher Scientific, Inc.). After the cells were incubated in assay plates at 37°C for 5 h, 23 nl of compounds (LOPAC) was transferred into the assay plates using a Wako Pintool station (Wako Automation, San Diego, CA, USA). The assay plates were incubated at 37°C for 48 h, followed by the addition of 5 μl ONE‐Glo luciferase reagent (Promega, Madison, WI, USA) using a Flying Reagent Dispenser (Aurora Discovery, Carlsbad, CA, USA). After 30 min of incubation at room temperature, the luminescence intensity of the assay plates was quantified using a ViewLux plate reader (PerkinElmer, Shelton, CT, USA).
(§1) To evaluate whether And‐1 is required for tumor survival, we examined the dependence of a broad range of tumor cells on And‐1 by using dependency score analysis from DepMap (https://depmap.org/portal/). […] To identify And‐1 specific pharmacologic inhibitor, we established an HTS assay to identify small molecules that can inhibit And‐1 by inducing its degradation. To this end, we first established two stable cell lines, HEK293T‐And‐1‐Luc expressing And‐1 protein fused to a luciferase reporter gene, and HEK293T‐Luc expressing luciferase only (Figure 1B). HEK293T‐And‐1‐Luc cells allow us to monitor And‐1 protein levels by measuring luciferase activity in a high‐throughput manner. Using these cell lines, we conducted a screening for And‐1 inhibitors against a LOPAC small molecule library by using a quantitative HTS (qHTS) as we described previously.[46]
On the technique in general: In a reporter assay the amount or activity of a reporter protein is the signal.

Data set [2] concerns the target T1, And‐1. The data set can be described thus: Immunoblot of And‐1 expression in IGROV1 cells. Type of data set: cell-based. Particulars: read-out: IC50, And‐1 expression.
Text: (§2) The assay was as previously described.[45]
as §1
(A) Dependency score of WDHD1/And‐1 analyzed by DepMap. […] (B) Establishment of HEK293T‐And‐1‐Luc and HEK293T‐Luc cells for the high‐throughput screen (HTS). (C) Schematic diagram of quantitative HTS (qHTS) for And‐1 inhibitors. (D) Immunoblot analyses to detect And‐1 expression in IGROV1 cells treated with resveratrol at indicated concentrations. (E) Chemical structures of resveratrol and its three analogs as indicated. (F) Left, immunoblot analyses to detect And‐1 expression in IGROV1 cells treated with And‐1 inhibitors at the indicated concentration. Right, quantification of And‐1 expression shown in the left panel.
(A western blot detects proteins with antibodies after separation by electrophoresis.)

On the set-up of data set [3]: method as in PMID 15779070. Particulars: due to rapid metabolism; cited from earlier work.
For data set [4], the system named is IGROV1 cells. The data set can be described thus: Immunofluorescence of CtIP recruitment to micro-irradiation induced DSB sites. Particulars: 1 µM. Type of data set: cell-based, human. The method, then: (§3) Supplementary Figure S1. Identification of novel And-1 inhibitors. […]
siAnd-1. S: S phase. (D) Immunofluorescence assay to detect CtIP and γH2AX foci formation after CH3 […]
IGROV1 cells treated with DMSO, 1 […]
to immunostain γH2AX and CtIP. For each experiment, 50 cells were counted and the percentage of cells with co-localization of γH2AX and CtIP foci was determined. Data represent means ± SEM from three independent experiments. (E) HR reporter assay to detect HR repair efficiency in cells treated with CH3. […]

The test system of the next data set is IGROV1 CR cells. Briefly: SRB cell viability assay, combination with cisplatin. The data set is classed as cell-based, human. Particulars: by combination index (CI < 1 synergism). The method, then:
as §2
Synergy of each combination was indicated as combination index (CI) values. […] (C) Tumors of IGROV1 CR xenograft treated with control (vehicle), cisplatin (8 mg/kg/day intraperitoneally), CH3 (20 mg/kg/3days intraperitoneally), or a combination of CH3 and cisplatin for 3 weeks. Ruler scale is in centimeters. (D) Growth curves of IGROV1 CR xenografts. […] (E) IHC staining against And‐1 antibodies of tumor samples from four treated groups of mice. Scale bar: 50 μm. […] Ruler scale is in centimeters. (G) Growth curves of IGROV1 CR xenografts. […] (H) IHC staining against And‐1 antibodies of tumor samples from four treated groups of mice. Scale bar: 50 μm.

Data set [5] concerns IGROV1 cells. Briefly: Flow cytometry cell cycle analysis (propidium iodide). Particulars: 1 µM, FACS. The data set is classed as cell-based, human.
Text: And‐1 is involved in DNA replication in the S‐phase and is required for the S‐phase progression.[15] We assumed that And‐1 inhibitors should be able to inhibit DNA replication by targeting And‐1.
as §3
Molecular weight of each compound was indicated. (C) Flow cytometry

The test system of the next data set is IGROV1 CR xenografts. Briefly: Cisplatin resistant IGROV1 CR xenograft in nude mice. The data set is classed as in vivo, mouse.
The mark [6] stands for this setting: reduction of luciferase activity, qHTS, column 1, read-out: IC50 (uM) 1.
[7] abbreviates: reduction of luciferase activity, qHTS, column 2.
Where [8] appears, read: reduction of luciferase activity, qHTS, average of 1 and 2, read-out: IC50 (uM) average.
[9] abbreviates: reduction of luciferase activity, qHTS, column 2, read-out: IC50 (uM) 2.

Structures can show the parent of a compound that is named as a salt. Where two headings read alike, the source gives them in different places.

A word on the IC50: it is the point on the concentration scale where inhibition reaches its midpoint.

As to `CC[C@@]1(O)C(=O)OCc2c1cc1n(c2=O)Cc2cc3ccccc3nc2-1` [(S)-(+)-Camptothecin], the IC50 at And‐1 [1] (setting [6]) worked out at 0.73 µM. Besides, the “IC50 (uM) 2” value at And‐1 [1] (setting [7]) is “inactive”.
The corresponding values for `CC[C@@]1(O)C(=O)OCc2c1cc1n(c2=O)Cc2cc3c(CN(C)C)c(O)ccc3nc2-1` [Topotecan hydrochloride hydrate] are 0.61 µM and “inactive”.
Regarding `Oc1ccc(/C=C/c2cc(O)cc(O)c2)cc1` [Resveratrol, 3,5,4′‐trihydroxy‐trans‐stilbene], the DC50 on And‐1 [2] turned out to be 16.7 µM; at And‐1 [1] (HEK293T‐And‐1‐Luc cells, qHTS, read-out: IC50, reduction of And‐1 levels (screening)), 18.9 µM; at And‐1 [1] (setting [8]), 18.9 µM; on And‐1 [1] (setting [6]), 14.9 µM; on And‐1 [1] (setting [9]), 22.9 µM. Also, in data set [3], the oral bioavailability result is recorded as “low oral bioavailability”.
`O=C1C(SCCO)=C(SCCO)C(=O)c2ccccc21` [NSC 95397]: the IC50 is 9.42 µM at And‐1 [1] (setting [8]), 11.2 µM at And‐1 [1] (setting [6]) and 7.68 µM at And‐1 [1] (setting [9]).
For the compound `c1ccc2c(c1)[I+]c1ccccc1-2` [Diphenyleneiodonium chloride], the DC50 at And‐1 [1] (read-out: IC50 (uM) 1) was 0.84 µM; on And‐1 [1] (read-out: IC50 (uM) 2), 0.03 µM; on And‐1 [1] (read-out: IC50 (uM) average), 0.43 µM.
As to `COCCOC(=O)C1=C(C)NC(C)=C(C(=O)OC/C=C/c2ccccc2)C1c1cccc([N+](=O)[O-])c1` (centres unmarked) [Cilnidipine], the figures for the DC50 on And‐1 [1] (setting [8]), at And‐1 [1] (setting [6]) and on And‐1 [1] (setting [9]) were 21.1 µM, 22.9 µM and 19.3 µM, respectively.
Take `CCN(CC)CCOc1ccc(Nc2ncc3cc(-c4c(Cl)cccc4Cl)c(=O)n(C)c3n2)cc1` [PD-166285 hydrate]: the IC50 at And‐1 [1] (setting [8]) is 3.03 µM; at And‐1 [1] (setting [6]), 3.33 µM; on And‐1 [1] (setting [9]) it was 2.73 µM.
As for `CNc1ccc2oc(C[C@H]3O[C@@]4(CC[C@H]3C)O[C@H]([C@H](C)C(=O)c3ccc[nH]3)[C@H](C)C[C@H]4C)nc2c1C(=O)O` [Calcimycin], the DC50 on And‐1 [1] (setting [8]) was found to be 8.32 µM; on And‐1 [1] (setting [6]) it was 6.1 µM; at And‐1 [1] (setting [9]) it was 10.5 µM.
For the compound `COc1cc2c(cc1O)CC[C@@H]1[C@@H]2CC[C@]2(C)[C@@H](O)CC[C@@H]12` [2-methoxyestradiol], the DC50 on And‐1 [1] (setting [6]) stood at 1.67 µM. The “IC50 (uM) 2” value on And‐1 [1] (setting [7]) is “inactive”.
Take `CC[n+]1c(/C=C/C=C2/N(C)c3ccccc3C2(C)C)sc2ccccc21` [AC-93253 iodide]: the values for the IC50 on And‐1 [1] (setting [8]), on And‐1 [1] (setting [6]) and at And‐1 [1] (setting [9]) were 0.76 µM, 1.09 µM and 0.44 µM, respectively.
Consider `C/C=C(/C)C(=O)O[C@H]1C(C)=C2[C@H]([C@@H]1OC(=O)CCCCCCC)[C@@](C)(OC(C)=O)C[C@H](OC(=O)CCC)[C@@]1(O)[C@H]2OC(=O)[C@@]1(C)O` [Thapsigargin], for which the values for the DC50 at And‐1 [1] (setting [8]), on And‐1 [1] (setting [6]) and on And‐1 [1] (setting [9]) were 6.95 µM, 13.3 µM and 0.63 µM, respectively.
For the compound `C=CCc1cccc(/C=N/NC(=O)CN2CCN(Cc3ccccc3)CC2)c1O` [PAC-1], the IC50 came out at 21.3 µM at And‐1 [1] (setting [8]), 18.8 µM at And‐1 [1] (setting [6]) and 23.8 µM on And‐1 [1] (setting [9]).
For the compound `Cc1c(-c2ccc(O)cc2)n(Cc2ccc(OCCN3CCCCCC3)cc2)c2ccc(O)cc12` [BZA, bazedoxifene acetate], the “recruitment of CtIP to DSB sites induced by micro‐irradiation” value with IGROV1 cells [4] is “significantly decreased”. On And‐1 [2], the DC50 was 0.32 µM. In addition, in the data set on IGROV1 CR cells, the “synergy with cisplatin to inhibit cell proliferation” value is on record as “significant synergy with cisplatin”. In addition, the “percentage of cells in the S‐phase” value in the data set on IGROV1 cells [5] was “reduced the percentage of cells in the S‐phase”. Further, in the data set on IGROV1 CR xenografts, the “expression of And‐1 in tumours (IHC)” value was “suppressed expression of And‐1 in tumours”. In the data set with IGROV1 CR xenografts (cisplatin 8 mg/kg + CH3 20 mg/kg or BZA 2 mg/kg, intraperitoneal, 3 weeks), the “resistant tumour growth, combination with cisplatin vs cisplatin alone” value was “significantly reduced resistant tumour growth”.
`Nc1ccn([C@@H]2O[C@H](CO)[C@@H](O)C2(F)F)c(=O)n1` [Gemcitabine hydrochloride]: the DC50 on And‐1 [1] (setting [6]) is 0.02 µM. The “IC50 (uM) 2” value against And‐1 [1] (setting [7]) was “inactive”.
